Source: article PMC10126245 (Frontiers in Cellular and Infection Microbiology, 2023)
≈ marks a conversion by molar mass, not a printed value. Where “and” joins values, the source holds several entries; their conditions need not be identical. Identical values can stand only once.

Columns and labels:
[1] = test system: CT-induced cAMP levels in CHO cell line; type: cell-based
CHO cell line [2] = conditions: Chinese hamster
[3] = test system: CFCF-induced cAMP levels in ligated-ileal loops; design: species or system Swiss albino mice; conditions: mouse, in vivo
CHO cell line [4] = test: cells; conditions: Cricetulus griseus, 24 h
[5] = test system: CFCF induced histopathological changes in ileal loops; design: species or system Swiss albino mice; conditions: mouse, in vivo
[6] = target: CT binding to GM1 receptor (Vibrio cholerae serotype O1, UniProt P01556)
[7] = test system: CT-induced cell elongation in CHO cell line; type: cell-based
in vitro = conditions: Chinese hamster
[8] = test system: CFCF-induced fluid accumulation in ligated-ileal loops; design: species or system Swiss albino mice; conditions: mouse, in vivo
CT-induced cAMP = conditions: 10µg/mL; cited from earlier work
CT binding to GM1 = conditions: 50mM; cited from earlier work
[9] = test system: FITC-CTB binding to Vero cells; conditions: 10µg/ml; cited from earlier work

Sequence of CT binding to GM1 receptor (P01556 22-124 limits assumed): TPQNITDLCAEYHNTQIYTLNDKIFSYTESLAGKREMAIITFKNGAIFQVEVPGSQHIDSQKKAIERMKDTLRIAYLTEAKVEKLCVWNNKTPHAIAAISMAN

SMILES	Bound percent (B%) of cAMP [1]	NC1 (non-cytotoxic concentration) (CHO cell line [2])	NC2 (non-cytotoxic concentration) (CHO cell line [2])	viability (CHO cell line [2])	cAMP levels in ligated-ileal tissues [3]	IC50 (CHO cell line [4])	Protection against CFCF induced histopathological changes (inflammation, edema) [5]	Binding inhibition of CT to GM1 [6]	Binding inhibition percentage (BI%) [6]	Protection against CT-induced cell elongation [7]	viability (in vitro)	Mean W/L ratio [8]	Mean weight/length (W/L) ratio of ligated-ileal loops [8]	Decrease in cAMP compared to CT control (CT-induced cAMP)	Binding inhibition of CT to GM1 (CT binding to GM1)	Inhibition of binding of FITC-CTB to Vero cells [9]
O=C(/C=C/c1ccc(O)c(O)c1)O[C@@H]1C[C@](O)(C(=O)O)C[C@@H](O)[C@H]1O [Chlorogenic acid]	81% and 78%	100 µg/mL	50 µg/mL	97.2%	1.18% and 1.89%	398 ± 5.4 µg/mL (≈ 1120 µM)	substantial protective activity	> 50%	92% and 81%	greater protective activities	90.5%	0.132 and 0.176	0.132 g/cm and 0.176 g/cm	–	–	–
O=c1oc2c(O)c(O)cc3c(=O)oc4c(O)c(O)cc1c4c23 [Ellagic acid]	82% and 81%	30 µg/mL	15 µg/mL	97.5%	0.62% and 1.31%	116 ± 9.6 µg/mL (≈ 382 µM)	substantial protective activity	> 50%	97%	greater protective activities	93.2%	0.091 and 0.094	0.091 g/cm and 0.094 g/cm	–	–	–
O=C(O)c1cc(O)c(O)c(O)c1 [Gallic acid, reference compound]	80% and 60%	25 µg/mL	12.5 µg/mL	97.9%	1.79% and 3.39%	103 ± 1.1 µg/mL (≈ 604 µM)	indistinct amelioration	–	–	–	93.5%	0.222 and 0.188	0.188 g/cm	76%	40%	23%
O=C(CCc1ccc(O)cc1)c1c(O)cc(O)cc1O[C@@H]1O[C@H](CO)[C@@H](O)[C@H](O)[C@H]1O [Phloridzin]	71% and 50%	75 µg/mL	37.5 µg/mL	97.6%	–	298 ± 3.9 µg/mL (≈ 683 µM)	–	> 50%	–	–	94.8%	–	–	–	–	–
C[C@@H]1O[C@@H](Oc2c(-c3ccc(O)c(O)c3)oc3cc(O)cc(O)c3c2=O)[C@H](O)[C@H](O)[C@H]1O [Quercetrin, reference compound]	66% and 47%	60 µg/mL	30 µg/mL	96.3%	–	234 ± 3.7 µg/mL (≈ 521 µM)	–	–	–	–	91%	–	–	59%	–	20%
C[C@@H]1O[C@@H](OC[C@H]2O[C@@H](Oc3c(-c4ccc(O)c(O)c4)oc4cc(O)cc(O)c4c3=O)[C@H](O)[C@@H](O)[C@@H]2O)[C@H](O)[C@H](O)[C@H]1O [Rutin]	53% and 44%	70 µg/mL	35 µg/mL	97.6%	–	287 ± 6.9 µg/mL (≈ 471 µM)	–	–	9% and 2%	–	92.4%	–	–	–	–	–
